Measured values published in US20170037028A1 (BAYER PHARMA AKTIENGESELLSCHAFT, priority 2013, published 2017).

molecular target: T1, GLUT1 (Homo sapiens, UniProt P11166); test: Indirect measurement of GLUT1 activity by quantification of intracellular ATP levels (glucose induced ATP increase); type: cell-based; set-up: endogenous in cells; host or cells: DLD1 or CHO-K1; details: DLD1 cells; 0.1 mM glucose, 1 μM Rotenone, 15 min; CellTiter-Glo ATP readout; IC50 values standardized to cytochalasin B IC50 values; read-out: IC50 regarding glucose induced ATP increase (GLUT1 inhibition)
T1 sequence (P11166 1-492): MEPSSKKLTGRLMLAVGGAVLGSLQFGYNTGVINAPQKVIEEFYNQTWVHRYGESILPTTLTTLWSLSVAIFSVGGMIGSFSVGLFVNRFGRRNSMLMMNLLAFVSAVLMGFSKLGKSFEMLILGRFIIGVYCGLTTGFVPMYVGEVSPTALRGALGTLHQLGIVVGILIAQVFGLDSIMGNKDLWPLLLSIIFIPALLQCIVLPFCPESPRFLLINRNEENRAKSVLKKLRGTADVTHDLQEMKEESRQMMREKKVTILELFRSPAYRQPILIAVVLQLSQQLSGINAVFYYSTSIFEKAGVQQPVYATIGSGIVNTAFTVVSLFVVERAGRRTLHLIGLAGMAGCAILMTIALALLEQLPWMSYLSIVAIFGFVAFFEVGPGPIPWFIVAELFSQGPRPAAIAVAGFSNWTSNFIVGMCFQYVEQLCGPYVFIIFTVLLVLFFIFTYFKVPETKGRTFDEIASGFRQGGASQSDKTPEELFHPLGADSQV
How it was run: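 Intracellular ATP was measured by CellTiter-Glo luminescence as an indirect readout of transport: glucose-driven for GLUT1, fructose-driven for GLUT2. DLD1 or CHO-K1 cells were used alongside an oxidative phosphorylation inhibitor. Beforehand, cells were held overnight in glucose-free 1% FCS medium to deplete ATP.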

Row | Compound | IC50 [nM]
1 | Cc1nn(CC2CCOCC2)c(C)c1NC(=O)c1cc(C(F)(F)F)nc2ccc(Br)cc12 [Example 1114] | 59.2
2 | Cc1nn(CCc2ccc(F)cc2)c(C)c1NC(=O)c1cc(C(F)(F)F)nc2ccc(Br)cc12 [Example 1129] | 86.6

same assay, conditions: read-out: IC50 regarding glucose induced ATP increase (GLUT1 inhibition)

Row | Compound | IC50 [nM]
3 | COCCNC(=O)c1ccc(Cn2nc(C(F)(F)F)c(NC(=O)c3cc(C(F)(F)F)nc4ccc(Br)cc34)c2C)nc1 [Example 1115] | 59.4
4 | Cc1nn(Cc2ccc(C(=O)NCCn3ccnc3)cc2)c(C)c1NC(=O)c1cc(C(F)(F)F)nc2ccc(Br)cc12 [Example 1116] | 59.5
5 | Cc1nn(Cc2cccnc2C#N)c(C)c1NC(=O)c1cc(C(F)(F)F)nc2ccc(Br)cc12 [Example 1118] | 63.5
6 | Cc1nn(Cc2ccc(C(=O)NCc3ccc(F)cc3)cc2)c(C)c1NC(=O)c1cc(C(F)(F)F)nc2ccc(Br)cc12 [Example 1119] | 65.1
7 | Cc1nn(Cc2ccc(C(=O)NCCN(CCO)CCO)cc2)c(C)c1NC(=O)c1cc(C(F)(F)F)nc2ccc(Br)cc12 [Example 1121] | 65.5
8 | Cc1nn(Cc2ccc(C(=O)NCc3cn(C)cn3)cc2)c(C)c1NC(=O)c1cc(C(F)(F)F)nc2ccc(Br)cc12 [Example 1125] | 78.5
9 | COc1cc(C(=O)Nc2c(C(F)(F)F)nn(Cc3ccc(C#N)nc3)c2C)c2ccccc2n1 [Example 1128] | 86.5
10 | Cc1nn(Cc2ccc(C(=O)NCc3nccs3)cc2)c(C)c1NC(=O)c1cc(C(F)(F)F)nc2ccc(Br)cc12 [Example 1130] | 86.6
11 | Cc1nn(Cc2ccc(C(=O)NCCCO)cn2)c(C)c1NC(=O)c1cc(C(F)(F)F)nc2ccc(Br)cc12 [Example 1131] | 86.7
12 | COc1cccc(CNC(=O)c2ccc(Cn3nc(C)c(NC(=O)c4cc(C(F)(F)F)nc5ccc(Br)cc45)c3C)cc2)c1 [Example 1132] | 88.2
13 | Cc1nn(Cc2ccc(C(=O)NCCCN3CCOCC3)cc2)c(C)c1NC(=O)c1cc(C(F)(F)F)nc2ccc(Br)cc12 [Example 1133] | 90.1
14 | Cc1nn(Cc2ccc(C(=O)NC(CO)(CO)CO)cc2)c(C)c1NC(=O)c1cc(C(F)(F)F)nc2ccc(Br)cc12 [Example 1136] | 98.2
15 | Cc1nn(Cc2ccc(C(=O)NCCOc3ccccc3)cc2)c(C)c1NC(=O)c1cc(C(F)(F)F)nc2ccc(Br)cc12 [Example 1137] | 100
16 | Cc1nn(Cc2ccc(C(N)=O)cn2)c(C)c1NC(=O)c1cc(C(F)(F)F)nc2ccc(Br)cc12 [Example 1138] | 102
17 | Cc1nn(Cc2ccc(C(=O)NCCc3ccccn3)cc2)c(C)c1NC(=O)c1cc(C(F)(F)F)nc2ccc(Br)cc12 [Example 1139] | 105
18 | Cc1nn(Cc2ccc(C(=O)NCc3cncn3C)cc2)c(C)c1NC(=O)c1cc(C(F)(F)F)nc2ccc(Br)cc12 [Example 1142] | 112
19 | Cc1nn(CC2CCOCC2)c(C)c1NC(=O)c1cc(C(F)(F)F)nc2c(Cl)cc(Cl)cc12 [Example 1143] | 114
20 | Cc1nn(Cc2ccc(C(=O)N(C)CCC3(O)CCCC3)cc2)c(C)c1NC(=O)c1cc(C(F)(F)F)nc2ccc(Br)cc12 [Example 1146] | 117
21 | Cc1nn(CCc2cccc(F)c2)c(C)c1NC(=O)c1cc(C(N)=O)nc2ccccc12 [Example 1148] | 122
22 | Cc1nn(Cc2ccc(C(=O)NCc3ccccc3F)cc2)c(C)c1NC(=O)c1cc(C(F)(F)F)nc2ccc(Br)cc12 [Example 1149] | 126
23 | Cc1nn(Cc2ccc(C(=O)NCCN3CCCCC3)cc2)c(C)c1NC(=O)c1cc(C(F)(F)F)nc2ccc(Br)cc12 [Example 1150] | 128
24 | Cc1nn(Cc2ccc(C(=O)NCc3ccccc3)cn2)c(C)c1NC(=O)c1cc(C(F)(F)F)nc2ccc(Br)cc12 [Example 1151] | 128
25 | COc1cc(C(=O)Nc2c(C)nn(Cc3cccnc3C#N)c2C)c2ccccc2n1 [Example 1153] | 136
26 | Cc1nn(Cc2ccc(C(=O)NCc3cnn(C)c3)cc2)c(C)c1NC(=O)c1cc(C(F)(F)F)nc2ccc(Br)cc12 [Example 1154] | 139
27 | COC(=O)N1CCC(Cn2nc(C)c(NC(=O)c3cc(C(N)=O)nc4ccccc34)c2C)CC1 [Example 1155] | 140
28 | CC(=O)N1CCC(Cn2nc(C)c(NC(=O)c3cc(C(F)(F)F)nc4ccc(Br)cc34)c2C)CC1 [Example 1156] | 149
29 | Cc1nn(Cc2ccc(C(=O)Nc3ccncn3)cc2)c(C)c1NC(=O)c1cc(C(F)(F)F)nc2ccc(Br)cc12 [Example 1158] | 155
30 | Cc1nn(Cc2ccc(C(=O)NCC3(C)COC3)cn2)c(C)c1NC(=O)c1cc(C(F)(F)F)nc2ccc(Br)cc12 [Example 1159] | 160
31 | Cc1nn(Cc2ccc(C(=O)NCc3cccc(F)c3)cc2)c(C)c1NC(=O)c1cc(C(F)(F)F)nc2ccc(Br)cc12 [Example 1163] | 166
32 | Cc1nn(Cc2ccc(C(=O)NC[C@@H]3CCCO3)cc2)c(C)c1NC(=O)c1cc(C(F)(F)F)nc2ccc(Br)cc12 [Example 1164] | 167

Continued, values first:

Row | IC50 [nM] | Compound
33 | 57 | Cc1nn(Cc2ccc(C(=O)NC[C@H](O)CO)cc2)c(C)c1NC(=O)c1cc(C(F)(F)F)nc2ccc(Br)cc12 [Example 1112]
34 | 58.5 | Cc1ccc2nc(C)cc(C(=O)Nc3c(C)nn(Cc4ccc(Br)cc4)c3C)c2c1 [Example 1113]
35 | 59.7 | Cc1nn(Cc2ccc(F)cc2)c(C)c1NC(=O)c1cc(C(F)(F)F)nc2ccc(N)cc12 [Example 1117]
36 | 65.5 | COCCCNC(=O)c1ccc(Cn2nc(C)c(NC(=O)c3cc(C(F)(F)F)nc4ccc(Br)cc34)c2C)cc1 [Example 1120]
37 | 67.3 | Cc1nn(Cc2ccc(C(=O)NC(CO)CO)cc2)c(C)c1NC(=O)c1cc(C(F)(F)F)nc2ccc(Br)cc12 [Example 1122]
38 | 71.1 | Cc1nn(Cc2ccc(C(=O)NCC3CC3(F)F)cc2)c(C)c1NC(=O)c1cc(C(F)(F)F)nc2ccc(Br)cc12 (stereo not shown) [Example 1123]
39 | 80 | CNC(=O)c1nn(Cc2ccc(F)cc2)c(C)c1NC(=O)c1cc(C(F)(F)F)nc2ccc(Br)cc12 [Example 1126]
40 | 83.3 | Cc1ccc2nc(C)cc(C(=O)Nc3c(C)nn(Cc4ccc(C#N)c(F)c4)c3C)c2c1 [Example 1127]
41 | 97.3 | Cc1nn(Cc2ccc(C(=O)NCC(C)(C)CO)cc2)c(C)c1NC(=O)c1cc(C(F)(F)F)nc2ccc(Br)cc12 [Example 1134]
42 | 98.1 | Cc1c(NC(=O)c2cc(C(F)(F)F)nc3ccc(Br)cc23)c(C(N)=O)nn1Cc1ccc(F)cc1 [Example 1135]
43 | 108 | C#CCNC(=O)c1ccc(Cn2nc(C)c(NC(=O)c3cc(C(F)(F)F)nc4ccc(Br)cc34)c2C)cc1 [Example 1141]
44 | 114 | Cc1nn(Cc2ccc(C(=O)NCCOCCO)cc2)c(C)c1NC(=O)c1cc(C(F)(F)F)nc2ccc(Br)cc12 [Example 1144]
45 | 116 | Cc1nn(Cc2ccc(C(=O)N(CCO)CCO)cc2)c(C)c1NC(=O)c1cc(C(F)(F)F)nc2ccc(Br)cc12 [Example 1145]
46 | 117 | Cc1nn(Cc2ccc(C(=O)N3CC(C#N)C3)cc2)c(C)c1NC(=O)c1cc(C(F)(F)F)nc2ccc(Br)cc12 [Example 1147]
47 | 132 | Cc1nn(Cc2ccc(C(=O)NC[C@@H](O)CO)cc2)c(C)c1NC(=O)c1cc(C(F)(F)F)nc2ccc(Br)cc12 [Example 1152]
48 | 150 | CNC(=O)CCNC(=O)c1ccc(Cn2nc(C)c(NC(=O)c3cc(C(F)(F)F)nc4ccc(Br)cc34)c2C)cc1 [Example 1157]
49 | 161 | Cc1nn(Cc2ccc(C(=O)N(C)CCC#N)cc2)c(C)c1NC(=O)c1cc(C(F)(F)F)nc2ccc(Br)cc12 [Example 1160]
